PMC4724249 (European journal of medicinal chemistry, 2015)

Experiments:
[1] = test system: MRSA CBD-635 and P. aeruginosa USF-1423; test: MIC of reference antibiotics at the start of serial passage; format: cell-based; conditions: organism not stated in the legend of Figure 4
[2] = test system: a variety of fungi and Gram-positive bacteria; conditions: cited from earlier work

| Molecule | MIC of reference antibiotic [1] [µM] | MICs [2] [µg/mL] |
| --- | --- | --- |
| CN[C@H](CC(C)C)C(=O)N[C@H]1C(=O)N[C@@H](CC(N)=O)C(=O)N[C@H]2C(=O)N[C@H]3C(=O)N[C@H](C(=O)N[C@H](C(=O)O)c4cc(O)cc(O)c4-c4cc3ccc4O)[C@H](O)c3ccc(c(Cl)c3)Oc3cc2cc(c3O[C@@H]2O[C@H](CO)[C@@H](O)[C@H](O)[C@H]2O[C@H]2C[C@](C)(N)[C@H](O)[C@H](C)O2)Oc2ccc(cc2Cl)[C@H]1O [Vancomycin] | 7 |  |
| fusaricidin A |  | 0.78 to 3.12 |
| O=C(O)c1cn(C2CC2)c2cc(N3CCNCC3)c(F)cc2c1=O [ciprofloxacin] | 30 |  |
